Key:
CYP11A1 = target: T1, CYP11A1 (Homo sapiens, UniProt P05108); experiment: CYP11A1 inhibition, isocaproic acid release assay (IARA) in H295R cells; assay type: cell-based; conditions: human H295R adrenocortical carcinoma cell line, three days, 3 nM [24,25-3H]-labelled cholesterol; read-out: IC50 on CYP11A1 inhibition (Group)
T1 construct: human H295R adrenocortical carcinoma cell line was used as source of enzyme; endogenous in cells; host or cells: H295R human adrenocortical carcinoma cells
T1 sequence (P05108 40-521): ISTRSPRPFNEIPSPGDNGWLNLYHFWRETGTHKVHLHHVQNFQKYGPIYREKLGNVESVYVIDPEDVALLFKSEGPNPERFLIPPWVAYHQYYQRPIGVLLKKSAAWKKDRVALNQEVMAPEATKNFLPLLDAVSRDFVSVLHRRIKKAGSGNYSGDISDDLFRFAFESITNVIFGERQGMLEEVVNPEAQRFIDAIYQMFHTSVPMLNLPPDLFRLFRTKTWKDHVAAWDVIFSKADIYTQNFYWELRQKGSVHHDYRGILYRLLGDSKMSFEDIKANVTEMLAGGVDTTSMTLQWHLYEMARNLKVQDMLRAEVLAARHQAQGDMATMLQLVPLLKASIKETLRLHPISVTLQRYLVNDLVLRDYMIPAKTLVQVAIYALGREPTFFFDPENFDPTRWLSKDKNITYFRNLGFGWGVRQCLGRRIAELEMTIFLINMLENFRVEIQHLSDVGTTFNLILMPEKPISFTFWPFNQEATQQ
Procedure: The ability of the test compounds to inhibit conversion of cholesterol to pregnenolone and isocaproic acid was measured by modification of isocaproic acid release assay (IARA) described by Ruangwises et al. (Biology of Reproduction 1991; 45(1):143-50) except that human H295R adrenocortical carcinoma cell line was used as source of enzyme and extraction was done with dextran-coated charcoal suspension (Isomaa, V. et al., Endocrinology 1982; 111(3):833-843). […] To determine the half maximal inhibitory concentration (IC50) of the test compounds on CYP11A1 inhibition, the cells were treated for three days with increasing concentrations of the test compounds in the presence of 3 nM [24,25-3H]-labelled cholesterol (American Radiolabelled Chemicals). The final DMSO concentration was 1%. Cell culture medium was extracted with dextran-coated charcoal suspension and the radiolabelled isocaproic acid was determined by mixing 100 μl of supernatant fraction in 200 μl of scintillation fluid (OptiPhase SuperMix, Perkin Elmer). Radioactivity was measured using a Microbeta scintillation counter (1450 MicroBeta Trilux, Wallac). All the test compounds were studied at 10 concentrations in duplicates.

[1] = target: recombinant human cytochrome P450 (CYP) CYP3A4 enzyme (Homo sapiens, UniProt P08684); experiment: Formation of reactive metabolites, trapping with GSH, KCN and SCA; conditions: test compound 10 μM, recombinant human CYP3A4, NADPH, 1 hour, pH 7.4
Chain of recombinant human cytochrome P450 (CYP) CYP3A4 enzyme (P08684 whole entry): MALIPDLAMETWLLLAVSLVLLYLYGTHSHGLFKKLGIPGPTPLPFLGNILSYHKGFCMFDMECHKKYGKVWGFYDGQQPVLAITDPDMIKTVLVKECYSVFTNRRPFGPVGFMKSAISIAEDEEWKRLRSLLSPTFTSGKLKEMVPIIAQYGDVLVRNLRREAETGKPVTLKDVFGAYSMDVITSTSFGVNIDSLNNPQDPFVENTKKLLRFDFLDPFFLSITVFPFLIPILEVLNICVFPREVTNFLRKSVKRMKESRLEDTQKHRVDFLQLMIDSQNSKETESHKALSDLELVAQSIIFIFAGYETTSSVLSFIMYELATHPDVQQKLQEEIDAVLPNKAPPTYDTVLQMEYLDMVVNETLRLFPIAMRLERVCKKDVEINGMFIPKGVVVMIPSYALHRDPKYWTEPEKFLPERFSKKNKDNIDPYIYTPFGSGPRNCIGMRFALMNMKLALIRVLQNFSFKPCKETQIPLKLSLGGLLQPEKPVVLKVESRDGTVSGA

SMILES	IC50 (CYP11A1)	Number of CN trapped metabolites [1]	Number of GSH trapped metabolites [1]	Number of SCA trapped metabolites [1]
CC(O)c1ccc2c(c1)CN(Cc1cc(=O)c(OCC3CCN(S(C)(=O)=O)CC3)co1)C2 (stereo not drawn) [Compound 93, 2-((5-(1-Hydroxyethyl)isoindolin-2-yl)methyl)-5-((1-(methylsulfonyl)piperidin-4-yl)methoxy)-4H-pyran-4-one]	201 to 2000 nM	0	0	3 (trace)
CS(=O)(=O)N1CCC(COc2coc(CN3Cc4ccc(-c5ncon5)cc4C3)cc2=O)CC1 [Compound 8, 2-((5-(1,2,4-Oxadiazol-3-yl)isoindolin-2-yl)methyl)-5-((1-(methylsulfonyl)-piperidin-4-yl)methoxy)-4H-pyran-4-one]	101 to 200 nM	0	1 (trace)	–
CS(=O)(=O)c1cc(CN2Cc3ccc(-c4nnco4)cc3C2)ccc1OCC1CCN(S(C)(=O)=O)CC1 [Compound 10, 2-(2-(3-(Methylsulfonyl)-4-((1-(methylsulfonyl)piperidin-4-yl)methoxy)benzyl)-isoindolin-5-yl)-1,3,4-oxadiazole]	101 to 200 nM	1 (trace)	0	2 (trace)
CS(=O)(=O)N1CCC(COc2coc(CN3Cc4ccc(-c5nnco5)cc4C3)cc2=O)CC1 [Compound 1, 2-((5-(1,3,4-Oxadiazol-2-yl)isoindolin-2-yl)methyl)-5-(((methylsulfonyl)piperidin-4-yl)methoxy)-4H-pyran-4-one]	101 to 200 nM	0	0	2 (trace)
C/C(=N\O)c1ccc2c(c1)CN(Cc1cc(=O)c(OCC3CCN(S(C)(=O)=O)CC3)co1)C2 [Compound 90, (E)-2-((5-(1-(Hydroxyimino)ethyl)isoindolin-2-yl)methyl)-5-((1-(methylsulfonyl)piperidin-4-yl)methoxy)-4H-pyran-4-one]	101 to 200 nM	0	0	1 (trace)

Continued, values first:

IC50 (CYP11A1)	Number of CN trapped metabolites [1]	Number of GSH trapped metabolites [1]	Number of SCA trapped metabolites [1]	SMILES
< 100 nM	0	0	1 (trace)	CC(=O)c1ccc2c(c1)CN(Cc1cc(=O)c(OCC3CCN(S(C)(=O)=O)CC3)co1)C2 [Compound 89, 2-((5-Acetylisoindolin-2-yl)methyl)-5-((1-(methylsulfonyl)piperidin-4-yl)-methoxy)-4H-pyran-4-one]
101 to 200 nM	0	0	1 (trace)	CS(=O)(=O)N1CCC(COc2coc(CN3Cc4ccc(-n5cccn5)cc4C3)cc2=O)CC1 [Compound 7, 2-((5-(1H-Pyrazol-1-yl)isoindolin-2-yl)methyl)-5-((1-(methylsulfonyl)piperidin-4-yl)methoxy)-4H-pyran-4-one]

— US20230192677A1, “CYP11A1 INHIBITORS” (ORION CORPORATION, priority 2020, published 2023)
